From US20240383874A1, “BENZENE RING DERIVATIVE, AND COMPOSITION AND PHARMACEUTICAL USE THEREOF” (Xizang Haisco Pharmaceutical Co., Ltd., priority 2020, published 2024) come the findings set out here.

Counter-ions that a name gives are not always drawn. Like-named read-outs stand apart in the source and are kept apart here.

The nature of series [1]: Pharmacokinetic test in rats. In kind it is in vivo. To be noted: rat, po; male SD rats, single dose i.g. 5 mg/kg, plasma, 0-24 h. How it is done:
Test objective: in this test, a single dose of test compounds was administered to SD rats intragastrically, and the concentrations of the test compounds in plasma of the rats were measured to evaluate pharmacokinetic characteristics of the test compounds in the rats.
Test animals: male SD rats, 200-250 g, 6-8 weeks old, 3 rats/compound, purchased from Chengdu Dossy Experimental Animals Co., Ltd.
Test method: on the day of the test, 3 SD rats were randomly grouped according to their body weights. The animals were fasted with water available for 12 to 14 hours one day before the administration of a test compound, and were fed 4 hours after the administration.
Sampling: before and after the administration, 0.1 mL of blood was taken from the orbits of the rats under isoflurane anesthesia, and placed in an EDTAK2 centrifuge tube. Centrifugation was carried out at 5000 rpm at 4C for […], and the plasma was collected.
Time points for plasma collection in G1 group: 0, 5 min, 15 min, 30 min, 1 h, 2 h, 4 h, 6 h, 8 h, and 24 h.
Before analysis and detection, all samples were stored at −80° C. The samples were analyzed quantitatively by LC-MS/MS.

A further series deals with 22RV1 cells. As to the kind of experiment: Experiment 2 on inhibiting 22RV1 cell proliferation (7 days, CellTiter-Glo). The class given is cell-based. To be noted: 1% css-FBS phenol red-free medium, incubated with compound 7 days, read-out: IC50 values on proliferation inhibition of 22RV1 cells. In a few lines: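 Survival measured by CellTiter-Glo after 7 days of compound exposure, normalised to DMSO controls, with IC50 fitted by dose-response. Cells (22RV1, 2000/well) were seeded overnight in 1% css-FBS phenol red-free medium before dosing.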
In general terms: ATP-based viability assays read luminescence as a measure of living cells.

For orientation: AUC(0-t) means exposure summed from dosing to a finite time, without extrapolation to infinity. In series [1], `CC(C)(c1ccc(OCc2ccnc(N3CCC4(CC3)CCN(C3CC5(CCN(c6ccc7c(c6)C(=O)N(C6CCC(=O)NC6=O)C7=O)CC5)C3)CC4)n2)cc1)c1cc(Cl)cc(C#N)c1` (stereo not drawn) [Compound 128, 3-chloro-5-(2-(4-((2-(9-(7-(2-(2,6-dioxopiperidin-3-yl)-1,3-dioxoisoindolin-5-yl)-7-azaspiro[3.5]nonan-2-yl)-3,9-diazaspiro[5.5]undecan-3-yl)pyrimidin-4-yl)methoxy)phenyl)propan-2-yl)benzonitrile] came in with an exposure AUC(0-t) of 604 ± 149 ng·h/mL. Also, in the series with 22RV1 cells, the IC50 is 132 nM. `[2H]C([2H])([2H])Oc1c(Cl)cc(C(C)(C)c2ccc(OCc3ccnc(N4CCC(CN5CCC(C6CCN(c7ccc8c(c7)n(C)c(=O)n8C7CCC(=O)NC7=O)CC6)CC5)CC4)n3)cc2)cc1C#N` (stereo not drawn) [Compound 99 trifluoroacetate, 3-chloro-5-(2-(4-((2-(4-((1′-(1-(2,6-dioxopiperidin-3-yl)-3-methyl-2-oxo-2,3-dihydro-1H-benzo[d]imidazol-5-yl)-[4,4′-bipiperidin]-1-yl)methyl)piperidin-1-yl)pyrimidin-4-yl)methoxy)phenyl)propan-2-yl)-2-(methoxy-d3)benzonitrile] displayed an exposure AUC(0-t) in series [1] of 541 ± 80 ng·h/mL. In addition, the IC50 with 22RV1 cells (Homo sapiens, 22Rv1, 168 h) stood at 427 nM.

In series [1], `CC(C)(c1ccc(OCc2ccnc(N3CCC(CN4CCC(C5CCN(c6ccc7c(c6)C(=O)N(C6CCC(=O)NC6=O)C7=O)CC5)CC4)C3)n2)cc1)c1cc(Cl)cc(C#N)c1` (stereo not drawn) [Compound 130, 3-chloro-5-(2-(4-((2-(3-((1′-(2-(2,6-dioxopiperidin-3-yl)-1,3-dioxoisoindolin-5-yl)-[4,4′-bipiperidin]-1-yl)methyl)pyrrolidin-1-yl)pyrimidin-4-yl)methoxy)phenyl)propan-2-yl)benzonitrile] returned an area under the curve AUC(0-t) of 665 ± 264 ng·h/mL. In the series with 22RV1 cells, the IC50 came to 483 nM. In series [1], `CC(C)(c1ccc(OCc2ccnc(N3CCC(CN4CCC(C5CCN(c6ccc7c(c6)C(=O)N(C6CCC(=O)NC6=O)C7=O)CC5)CC4)CC3)n2)cc1)c1cc(Cl)cc(C#N)c1` (stereo not drawn) [Compound 37 trifluoroacetate, 3-chloro-5-(2-(4-((2-(4-((1′-(2-(2,6-dioxopiperidin-3-yl)-1,3-dioxoisoindolin-5-yl)-[4,4′-bipiperidin]-1-yl)methyl)piperidin-1-yl)pyrimidin-4-yl)methoxy)phenyl)propan-2-yl)benzonitrile] registered an exposure AUC(0-t) of 867 ± 66 ng·h/mL. Also, the IC50 with 22RV1 cells (Homo sapiens, 22Rv1, 168 h) turned out to be 507 nM. `CCOc1c(Cl)cc(C(C)(C)c2ccc(OCc3ccnc(N4CCC(CN5CCC(C6CCN(c7ccc(C(=O)NC8CCC(=O)NC8=O)nc7)CC6)CC5)CC4)n3)cc2)cc1C#N` (stereo not drawn) [Compound 111 trifluoroacetate, 5-(1′-((1-(4-((4-(2-(3-chloro-5-cyano-4-ethoxyphenyl)propan-2-yl)phenoxy)methyl)pyrimidin-2-yl)piperidin-4-yl)methyl)-[4,4′-bipiperidin]-1-yl)-N-(2,6-dioxopiperidin-3-yl)picolinamide] displayed an area under the curve AUC(0-t) in series [1] of 574 ± 59 ng·h/mL. In the series on 22RV1 cells (Homo sapiens, 22Rv1, 168 h), the IC50 worked out at 290 nM.

With `COc1c(Cl)cc(C(C)(C)c2ccc(OCc3ccnc(N4CCC(CN5CCC(C6CCN(c7ccc(N8CCC(=O)NC8=O)cc7)CC6)CC5)CC4)n3)cc2)cc1C#N` [Compound 120, 3-chloro-5-(2-(4-((2-(4-((1′-(4-(2,4-dioxotetrahydropyrimidin-1(2H)-yl)phenyl)-[4,4′-bipiperidin]-1-yl)methyl)piperidin-1-yl)pyrimidin-4-yl)methoxy)phenyl)propan-2-yl)-2-methoxybenzonitrile], the exposure AUC(0-t) in series [1] came out at 1430 ± 209 ng·h/mL. Consider `CC(C)(c1ccc(OCc2ccnc(N3CCC4(CC3)CN(CC3CCN(c5ccc6c(c5)C(=O)N(C5CCC(=O)NC5=O)C6=O)CC3)C4)n2)cc1)c1cc(Cl)cc(C#N)c1` (stereo not drawn) [Compound 45, 3-chloro-5-(2-(4-((2-(2-((1-(2-(2,6-dioxopiperidin-3-yl)-1,3-dioxoisoindolin-5-yl)piperidin-4-yl)methyl)-2,7-diazaspiro[3.5]nonan-7-yl)pyrimidin-4-yl)methoxy)phenyl)propan-2-yl)benzonitrile], for which, in series [1], the area under the curve AUC(0-t) came out at 452 ± 137 ng·h/mL.
